# Measured values as given in patent US20150374673A1, “Combination Therapy for the Treatment of Nosocomial Pneumonia” (priority 2013, published 2015).
# Read-outs that look alike come from different tables or passages of the source.
# Key:
# S. aureus = assay: MIC, CLSI broth microdilution in CAMHB with 0-10% pulmonary surfactant (avibactam fixed at 4 μg/mL in combination); format: cell-based, Staphylococcus aureus
# Experimental: (§1) The bacterial strains used in this testing were part of the microbiological culture collection housed at AstraZeneca R&D Boston (AstraZeneca Research Collection, designated ARC). The panel of bacterial isolates used for this testing was comprised of five CLSI QC reference strains and the remainder were either recent clinical isolates expressing β-lactamases or isolates from the primary bacterial screening panels.
# (§2) MIC values were determined using the CLSI broth microdilution methodology with slight variation. Stock compound mother plates were prepared and used to spot 2 μL aliquots of serial 2-fold drug dilutions to columns 1-11 of 96-well daughter plates using a Perkin-Elmer MiniTrak™ MultiPosition dispenser. […] An inoculum volume of 100 μL (5×10E^5 CFU/mL) in CAMHB containing 0, 1, 2.5, 5, or 10% pulmonary surfactant was added using a multichannel Finnpipette® to each well of the 96-well plate.
# (§3) The minimum inhibitory concentration (MIC) values against each organism/drug combination were determined using broth microdilution methodology according to CLSI guidelines. The recommended reference bacterial strains for each test group and reference compounds were incorporated into each test. For Gram-negatives, the reference bacterial strains were Escherichia coli ATCC 25922, E. coli ATCC 35218, Klebsiella pneumoniae ATCC 700603, and Pseudomonas aeruginosa ATCC 27853. Staphylococcus aureus ATCC 29213 was the reference bacterial strain for the Gram-positives.
# (§4) MIC values for individual isolates were read visually. The MICs for each compound or combination in pulmonary surfactant was compared to the compound or combination tested in CAMHB alone.
# P. aeruginosa [1] = assay: as above; format: cell-based, Pseudomonas aeruginosa; conditions: Pseudomonas aeruginosa, read-out: MIC
# Experimental: as §1, §2, §3, §4
# [2] = test system: Gram-positive or Gram-negative bacterial strains; assay: MIC in pulmonary surfactant compared with CAMHB alone, whole strain panel; format: cell-based; conditions: up to 10% pulmonary surfactant vs CAMHB alone; any strain tested
# Experimental: as §1, §2
# The minimum inhibitory concentration (MIC) values against each organism/drug combination were determined using broth microdilution methodology according to CLSI guidelines. The recommended reference bacterial strains for each test group and reference compounds were incorporated into each test. […]
# MIC values for individual isolates were read visually. […]
# K. pneumoniae = assay: Initial MIC, microbroth dilution (CLSI), avibactam 4 mg/L; format: cell-based; conditions: Klebsiella pneumoniae
# Experimental: (§5) All MIC determinations including those performed in the checkerboard assay were done in cation-adjusted Mueller-Hinton broth (purchased from Becton Dickinson, Oxford UK).
# (§6) Initial MIC data were determined by microbroth dilution methods as recommended by CLSI (2012b). Checkerboards were made in accordance with the method given by Pillai et. al., ? Antimicrobial Combinations in Antibiotics, LABORATORY MEDICINE (Lorian Ed., 3rd Ed. (2003)) p. 365-440 as per standard microbroth dilution tests but with agents in combination. […] A final avibactam concentration of 4 mg/L was used throughout the study. Antibacterial agents were combined into microtitre plates using the Evolution III liquid handling system.
# P. aeruginosa [3] = assay: as above; format: cell-based; conditions: Pseudomonas aeruginosa
# Experimental: as §5, §6
# [4] = Serum and epithelial lining fluid (ELF) pharmacokinetics of ceftazidime-avibactam human simulated regimen in infected and uninfected mice; conditions: for fT > MIC: human simulated CAZ-AVI 2000-500 mg q8h 2 h infusion
# Experimental: Pathogen-free, female ICR mice weighing approximately 25 g were acquired from Harlan Sprague Dawley, Inc. (Indianapolis, Ind.) and utilized throughout these experiments. Animals were maintained and used in accordance to National Research Council recommendations, and provided food and water ad libitum. Mice were rendered neutropenic with 100 and 250 mg/kg intraperitoneal injections of cyclophosphamide (Cytoxan®; Bristol-Myers Squibb, Princeton, N.J.) given one and four days prior to inoculation, respectively. Three days prior to inoculation, mice were also given a single 5 mg/kg intraperitoneal injection of uranyl nitrate. This produces a predictable degree of renal impairment to slow drug clearance. Two hours prior to the initiation of antimicrobial therapy, mice were lightly anesthetized using isofluorane (2.5% v/v in 100% oxygen carrier) until the respiratory rate decreased upon visual inspection. Pneumonia was induced by the instillation of 0.05 mL of a 10^7 CFU inoculum of the test isolate suspended in 3% mucin in normal saline. While the mouse is anesthetized, the inoculum is delivered into the animal's oral cavity, blocking the nares and holding the mouse in a vertical position. Aspiration of bacteria into the lungs occurred as the animals began to spontaneously respire.
# In these studies, we utilized the previously determined dosing regimen described above. Confirmatory serum pharmacokinetic studies were undertaken in infected mice. For these studies, infected neutropenic mice were dosed with the above calculated regimen and groups of six mice ? were euthanized at multiple time points throughout a 24 h period to confirm target exposures blood was collected via cardiac puncture and the serum samples were stored at −80° C. until analysis. Pharmacokinetic studies were undertaken to describe the epithelial lining fluid concentrations in infected mice. For these studies, infected neutropenic mice were dosed with the above calculated regimen and groups of six mice were euthanized at multiple time points throughout the third dosing period (i.e. 16-24 h). Once euthanized, serum and BAL samples were collected as described above. Serum and BAL samples were stored at −80° C. until analysis.
# [5] = female, ICR, mouse, epithelial lining fluid (ELF) vs serum, ELF point Penetration Ratio, infected mice, ELF vs serum, third dosing interval
# [6] = female, ICR, mouse, epithelial lining fluid (ELF) vs serum, ELF point Penetration Ratio, uninfected mice, ELF vs serum, third dosing interval
smiles,measurement,setting,value
"CC(C)(O/N=C(\C(=O)N[C@@H]1C(=O)N2C(C(=O)[O-])=C(C[n+]3ccccc3)CS[C@H]12)c1csc(N)n1)C(=O)O [ceftazidime, (6R,7R)-7-[[(2Z)-2-(2-amino-1,3-thiazol-4-yl)-2-(1-hydroxy-2-methyl-1-oxopropan-2-yl)oxyiminoacetyl]amino]-8-oxo-3-(pyridin-1-ium-1-ylmethyl)-5-thia-1-azabicyclo[4.2.0]oct-2-ene-2-carboxylate pentahydrate]",MIC,"S. aureus; S. aureus ARC12 (CLSI QC strain, ATCC 29213), surfactant 0%",8 µg/mL
same,MIC,"S. aureus; S. aureus ARC12 (CLSI QC strain, ATCC 29213), surfactant 1%",16 µg/mL
same,MIC,"S. aureus; S. aureus ARC12 (CLSI QC strain, ATCC 29213), surfactant 2.5%",16 µg/mL
same,MIC,"S. aureus; S. aureus ARC12 (CLSI QC strain, ATCC 29213), surfactant 5%",8 µg/mL
same,MIC,"S. aureus; S. aureus ARC12 (CLSI QC strain, ATCC 29213), surfactant 10%",8 µg/mL
same,MIC,"S. aureus; S. aureus ARC516 (MRSA, quinolone-resistant), surfactant 0%",>64 µg/mL
same,MIC,"S. aureus; S. aureus ARC516 (MRSA, quinolone-resistant), surfactant 1%",>64 µg/mL
same,MIC,"S. aureus; S. aureus ARC516 (MRSA, quinolone-resistant), surfactant 2.5%",>64 µg/mL
same,MIC,"S. aureus; S. aureus ARC516 (MRSA, quinolone-resistant), surfactant 5%",>64 µg/mL
same,MIC,"S. aureus; S. aureus ARC516 (MRSA, quinolone-resistant), surfactant 10%",>64 µg/mL
same,MIC,"P. aeruginosa [1]; ATCC27853, P. aeruginosa ARC3 (CLSI QC strain, ATCC 27853), surfactant 1%",1 µg/mL
same,MIC,"P. aeruginosa [1]; ATCC27853, P. aeruginosa ARC3 (CLSI QC strain, ATCC 27853), surfactant 2.5%",2 µg/mL
same,MIC,"P. aeruginosa [1]; ATCC27853, P. aeruginosa ARC3 (CLSI QC strain, ATCC 27853), surfactant 5%",1 µg/mL
same,MIC,"P. aeruginosa [1]; ATCC27853, P. aeruginosa ARC3 (CLSI QC strain, ATCC 27853), surfactant 10%",2 µg/mL
same,MIC,"P. aeruginosa [1]; ATCC27853, P. aeruginosa ARC3 (CLSI QC strain, ATCC 27853), surfactant 0%",1 µg/mL
same,MIC,"P. aeruginosa [1]; P. aeruginosa ARC2532 (Clinical isolate), surfactant 0%",2 µg/mL
same,MIC,"P. aeruginosa [1]; P. aeruginosa ARC2532 (Clinical isolate), surfactant 1%",2 µg/mL
same,MIC,"P. aeruginosa [1]; P. aeruginosa ARC2532 (Clinical isolate), surfactant 2.5%",2 µg/mL
same,MIC,"P. aeruginosa [1]; P. aeruginosa ARC2532 (Clinical isolate), surfactant 5%",2 µg/mL
same,MIC,"P. aeruginosa [1]; P. aeruginosa ARC2532 (Clinical isolate), surfactant 10%",2 µg/mL
same,MIC,"P. aeruginosa [1]; P. aeruginosa ARC2761 (Clinical isolate), surfactant 1%",2 µg/mL
same,MIC,"P. aeruginosa [1]; P. aeruginosa ARC2761 (Clinical isolate), surfactant 2.5%",1 µg/mL
same,MIC,"P. aeruginosa [1]; P. aeruginosa ARC2761 (Clinical isolate), surfactant 5%",2 µg/mL
same,MIC,"P. aeruginosa [1]; P. aeruginosa ARC2761 (Clinical isolate), surfactant 10%",2 µg/mL
same,MIC,"P. aeruginosa [1]; P. aeruginosa ARC3508 (derepressed AmpC), surfactant 0%",32 µg/mL
same,MIC,"P. aeruginosa [1]; P. aeruginosa ARC3508 (derepressed AmpC), surfactant 1%",32 µg/mL
same,MIC,"P. aeruginosa [1]; P. aeruginosa ARC3508 (derepressed AmpC), surfactant 2.5%",32 µg/mL
same,MIC,"P. aeruginosa [1]; P. aeruginosa ARC3508 (derepressed AmpC), surfactant 5%",32 µg/mL
same,MIC,"P. aeruginosa [1]; P. aeruginosa ARC3508 (derepressed AmpC), surfactant 10%",32 µg/mL
same,MIC,"P. aeruginosa [1]; PAO1, P. aeruginosa ARC545 (PAO1), surfactant 0%",1 µg/mL
same,MIC,"P. aeruginosa [1]; PAO1, P. aeruginosa ARC545 (PAO1), surfactant 1%",1 µg/mL
same,MIC,"P. aeruginosa [1]; PAO1, P. aeruginosa ARC545 (PAO1), surfactant 2.5%",1 µg/mL
same,MIC,"P. aeruginosa [1]; PAO1, P. aeruginosa ARC545 (PAO1), surfactant 5%",1 µg/mL
same,MIC,"P. aeruginosa [1]; PAO1, P. aeruginosa ARC545 (PAO1), surfactant 10%",1 µg/mL
same,MIC,"P. aeruginosa [1]; P. aeruginosa ARC2761 (Clinical isolate), surfactant 0%",2 µg/mL
same,MIC increase in pulmonary surfactant,[2],no MIC increases were observed
same,MIC,"K. pneumoniae; isolate 9 K. pneumoniae Basal MICs, read-out: MIC",0.12 µg/mL
same,MIC,"K. pneumoniae; isolate 10 K. pneumoniae TEM-4, read-out: MIC",32 µg/mL
same,MIC,"K. pneumoniae; isolate 11 K. pneumoniae CTX-M-15, read-out: MIC",32 µg/mL
same,MIC,"K. pneumoniae; isolate 12 K. pneumoniae SHV-12, read-out: MIC",64 µg/mL
same,MIC,K. pneumoniae; isolate 13 K. pneumoniae KPC-3,128 µg/mL
same,MIC,"K. pneumoniae; isolate 14 K. pneumoniae KPC-3, read-out: MIC",16 µg/mL
same,MIC,"K. pneumoniae; isolate 15 K. pneumoniae KPC-2, read-out: MIC",64 µg/mL
same,MIC,"P. aeruginosa [3]; isolate 16 P. aeruginosa Basal MICs, read-out: MIC",1 µg/mL
same,MIC,"P. aeruginosa [3]; isolate 17 P. aeruginosa Derepressed AmpC, read-out: MIC",8 µg/mL
same,MIC,"P. aeruginosa [3]; isolate 18 P. aeruginosa Derepressed AmpC, read-out: MIC",64 µg/mL
same,MIC,"P. aeruginosa [3]; isolate 19 P. aeruginosa PER, read-out: MIC",128 µg/mL
same,MIC,P. aeruginosa [3]; isolate 20 P. aeruginosa KPC-2,128 µg/mL
same,MIC,"P. aeruginosa [3]; isolate 21 P. aeruginosa KPC-2, read-out: MIC",64 µg/mL
same,fT > MIC,"[4]; MIC 4, ELF, infected mice",100%
same,fT > MIC,"[4]; MIC 4, ELF, uninfected mice",100%
same,fT > MIC,"[4]; MIC 4, Serum, infected mice",100%
same,fT > MIC,"[4]; MIC 4, Serum, uninfected mice",100%
same,fT > MIC,"[4]; MIC 32, ELF, infected mice",0%
same,fT > MIC,"[4]; MIC 32, ELF, uninfected mice",34%
same,fT > MIC,"[4]; MIC 32, Serum, infected mice",50%
same,fT > MIC,"[4]; MIC 32, Serum, uninfected mice",62%
same,Kp at 16 h,[4]; [5],2.13
same,Kp at 18.5 h,[4]; [5],0.8
same,Kp at 22 h,"[4]; female, ICR, mouse, epithelial lining fluid (ELF) vs serum, ELF point Penetration Ratio, infected mice, 22 h, ELF vs serum, third dosing interval",0.3
same,Kp at 24 h,[4]; [5],0.95
same,Kp at 16 h,[4]; [6],1.02
same,Kp at 18.5 h,[4]; [6],0.8
same,Kp at 24 h,[4]; [6],0.64
